# Like-named read-outs stand apart in the source and are kept apart here.
# Experiments:
# EKVX = assay type: cell-based; settings: Homo sapiens
# CAKI-1 = assay type: cell-based; settings: Homo sapiens
# SNB-75 = assay type: cell-based; settings: Homo sapiens
# A549/ATCC = assay type: cell-based; settings: Homo sapiens
# HCC-2998 = assay type: cell-based; settings: Homo sapiens
# UACC-62 = assay type: cell-based; settings: Homo sapiens
# TK-10 = assay type: cell-based; settings: Homo sapiens
# 786-0 = assay type: cell-based; settings: Homo sapiens
# HOP-92 = assay type: cell-based; settings: Homo sapiens
# RPMI-8226 = assay type: cell-based
# HCT-116 = assay type: cell-based, human
# DU-145 = assay type: cell-based; settings: Homo sapiens
# HT29 = assay type: cell-based; settings: Homo sapiens
# NCI-H23 = assay type: cell-based; settings: Homo sapiens
# T-47D = assay type: cell-based; settings: Homo sapiens, T47D
# NCI-H522 = assay type: cell-based; settings: Homo sapiens
# BT-549 = assay type: cell-based; settings: Homo sapiens
# K-562 = assay type: cell-based, human
# SR = assay type: cell-based, human
# [1] = system: 59 human cancer cell-lines; assay type: cell-based
# HS 578T = assay type: cell-based
# IGROV1 = assay type: cell-based; settings: Homo sapiens, IGROV-1
# HOP-62 = assay type: cell-based; settings: Homo sapiens
# MOLT-4 = assay type: cell-based; settings: Homo sapiens
# PC-3 = assay type: cell-based; settings: Homo sapiens
# SW-620 = assay type: cell-based; settings: Homo sapiens
# KM12 = assay type: cell-based; settings: Homo sapiens
# UO-31 = assay type: cell-based; settings: Homo sapiens
# SF-295 = assay type: cell-based; settings: Homo sapiens
# ACHN = assay type: cell-based; settings: Homo sapiens
# SF-539 = assay type: cell-based; settings: Homo sapiens
# NCI-H226 = assay type: cell-based; settings: Homo sapiens
# A498 = assay type: cell-based; settings: Homo sapiens
# MDA-MB-435 = assay type: cell-based; settings: Homo sapiens
# [2] = read-out: LC50 (the source's name)
# [3] = panel mean graph midpoint, Units Molar
smiles,measurement,setting,value
"COc1cc(/C=C/C(=O)c2ccc(-n3cc(CN4CCN(c5cc6c(cc5F)c(=O)c(C(=O)O)cn6C5CC5)CC4)nn3)cc2)cc(OC)c1OC [Compound 4j, (E)-1-cyclopropyl-6-fluoro-4-oxo-7–(4-((1–(4-(3-(3,4,5-trimethoxyphenyl)acryloyl)phenyl)-1H-1,2,3-triazol-4-yl)methyl)piperazin-1-yl)-1,4-dihydroquinoline-3-carboxylic acid]",GI50,EKVX,4.24 µM
same,CC50,EKVX; [2],> 100 µM
same,GI50,CAKI-1,5.1 µM
same,CC50,CAKI-1; [2],51.7 µM
same,GI50,SNB-75,1.49 µM
same,CC50,SNB-75; [2],> 100 µM
same,GI50,A549/ATCC,2.98 µM
same,CC50,A549/ATCC; [2],> 100 µM
same,GI50,HCC-2998,1.73 µM
same,GI50,UACC-62,2.83 µM
same,CC50,UACC-62; [2],57.7 µM
same,GI50,TK-10,5.61 µM
same,CC50,TK-10; [2],> 100 µM
same,GI50,786-0,1.67 µM
same,GI50,HOP-92,11.7 µM
same,CC50,HOP-92; [2],> 100 µM
same,GI50,"RPMI-8226; Homo sapiens, RPMI-8226, RPMI-8226",0.401 µM
same,CC50,"RPMI-8226; Homo sapiens, RPMI-8226, read-out: LC50 (the source's name)",> 100 µM
same,GI50,RPMI-8226; RPMI-8226,0.4 µM
same,GI50,HCT-116; HCT-116,0.21 µM
same,GI50,"HCT-116; Homo sapiens, HCT-116, HCT-116",0.206 µM
same,IC50,"HCT-116; Homo sapiens, HCT-116, HCT116, SRB assay",0.2 µM
same,GI50,DU-145,3.67 µM
same,LC50 (lethal concentration 50%),DU-145,> 100 µM
same,GI50,HT29; HT-29,1.24 µM
same,CC50,"HT29; HT-29, read-out: LC50 (the source's name)",> 100 µM
same,GI50,NCI-H23,2.97 µM
same,CC50,NCI-H23; [2],> 100 µM
same,GI50,T-47D,3.16 µM
same,CC50,T-47D; [2],> 100 µM
same,GI50,NCI-H522,4.25 µM
same,LC50,NCI-H522,> 100 µM
same,GI50,BT-549,1.71 µM
same,GI50,K-562,0.97 µM
same,GI50,"K-562; Homo sapiens, K562",0.977 µM
same,CC50,"K-562; Homo sapiens, K562, read-out: LC50 (the source's name)",> 100 µM
same,GI50,SR,0.43 µM
same,GI50,SR; Homo sapiens,0.434 µM
same,CC50,"SR; Homo sapiens, read-out: LC50 (the source's name)",> 100 µM
same,GI50,"[1]; Homo sapiens, range over all cancer cell lines",0.21 to 21.1 µM
same,Log10GI50 _MID,[1]; [3],-5.58
same,Log10LC50 _MID,[1]; [3],-4.06
same,Log10TGI _MID,[1]; [3],-4.58
same,TGI,HS 578T; HS 578 T,>100 µM
same,TGI,HS 578T; HS 578T,> 1.00E-4 Molar
same,GI50,"HS 578T; Homo sapiens, HS 578T",3.91 µM
same,CC50,"HS 578T; Homo sapiens, HS 578T, read-out: LC50 (the source's name)",> 100 µM
same,GI50,IGROV1,1.64 µM
same,GI50,HOP-62,2.49 µM
same,CC50,HOP-62; [2],> 100 µM
same,GI50,MOLT-4,3.32 µM
same,CC50,MOLT-4; [2],> 100 µM
same,GI50,PC-3,2.54 µM
same,CC50,PC-3; [2],> 100 µM
same,GI50,SW-620,1.37 µM
same,CC50,SW-620; [2],> 100 µM
same,GI50,KM12,1.57 µM
same,CC50,KM12; [2],> 100 µM
same,GI50,UO-31,1.73 µM
same,CC50,UO-31; [2],30.5 µM
same,GI50,SF-295,2.91 µM
same,CC50,SF-295; [2],> 100 µM
same,GI50,ACHN,3.5 µM
same,CC50,ACHN; [2],> 100 µM
same,GI50,SF-539,1.91 µM
same,CC50,SF-539; [2],10.3 µM
same,GI50,NCI-H226,2.39 µM
same,CC50,NCI-H226; [2],> 100 µM
same,GI50,A498,4.18 µM
same,CC50,A498; [2],39.8 µM
same,GI50,MDA-MB-435,1.49 µM
same,CC50,MDA-MB-435; [2],> 100 µM
